Laboratory results from patent US20230390319A1, “INTERFERON GENE STIMULATOR COMPOSITION COMPRISING INDOLIZINE DERIVATIVE AS ACTIVE INGREDIENT” (AJOU UNIVERSITY INDUSTRY-ACADEMIC COOPERATION FOUNDATION, priority 2020, published 2023).
Several values for one entry are separate records, joined by “and”; a condition that tells them apart may be missing. Identical values can stand only once. Like-named read-outs stand apart in the source and are kept apart here.

Test: PK profiles after IV and PO administration to BALB/c mice
Assay type: in vivo
Settings: for MRT last: read-out: MRT(0-t); for MRT inf: read-out: MRT(0-∞)
Description: The pharmacokinetics and oral bioavailability of Compound 42 were investigated in mice following single intravenous (IV) injection and oral administration (PO).

[1] = BALB/c, mouse, blood, po, 20 mg/kg, PO 20.0 mg/kg, individual animals
[2] = BALB/c, mouse, blood, po, 20 mg/kg, PO 20.0 mg/kg, mean n=3
[3] = IV 5.0 mg/kg, individual animals, 5 mg/kg
[4] = PO 20.0 mg/kg, individual animals, 20 mg/kg

Work on CC(=O)c1ccc(-c2cc(C(=O)c3ccc(C(F)(F)F)cc3)n3ccccc23)cc1 [Compound 42] yielded a concentration at 3 h (BALB/c, mouse, blood, po, 20 mg/kg, PO 20 mg/kg, 3.00 h, individual animals 201-203, read-out: concentration in blood) of 149 ng/mL, a concentration at 3 h (BALB/c, mouse, blood, po, 20 mg/kg, PO 20 mg/kg, 3.00 h, mean, read-out: concentration in blood, Mean PO) of 161 ng/mL and a concentration at 6 h (BALB/c, mouse, blood, po, 20 mg/kg, PO 20 mg/kg, 6.00 h, individual animals 201-203, read-out: concentration in blood) of 98.7 ng/mL. The concentration at 6 h (BALB/c, mouse, blood, po, 20 mg/kg, PO 20 mg/kg, 6.00 h, mean, read-out: concentration in blood, Mean PO) was 111 ng/mL, the concentration at 24 h (BALB/c, mouse, blood, po, 20 mg/kg, PO 20 mg/kg, 24.00 h, individual animals 201-203, read-out: concentration in blood) was 39 ng/mL and the concentration at 24 h (BALB/c, mouse, blood, po, 20 mg/kg, PO 20 mg/kg, 24.00 h, mean, read-out: concentration in blood, Mean PO) was 42.4 ng/mL. The AUC(0-t) (BALB/c, mouse, blood, po, 20 mg/kg, PO 20.0 mg/kg, individual animals, read-out: AUC(0-t)) was 2100 ng·h/mL, the AUC(0-inf) (BALB/c, mouse, blood, po, 20 mg/kg, PO 20.0 mg/kg, individual animals, read-out: AUC(0-∞)) was 2750 ng·h/mL and the Cmax (BALB/c, mouse, blood, po, 20 mg/kg, PO 20.0 mg/kg, individual animals, read-out: Cmax) was 211 ng/mL. It also gave an MRT last [1] of 7.66 h, an MRT inf [1] of 15.5 h and a half-life (BALB/c, mouse, blood, po, 20 mg/kg, PO 20.0 mg/kg, individual animals, read-out: T1/2 (converted)) of 11.6 h. It also gave an AUC(0-t) (BALB/c, mouse, blood, po, 20 mg/kg, PO 20.0 mg/kg, mean n=3, read-out: AUC(0-t)) of 2320 ng·h/mL, an AUC(0-inf) (BALB/c, mouse, blood, po, 20 mg/kg, PO 20.0 mg/kg, mean n=3, read-out: AUC(0-∞)) of 3030 ng·h/mL and a Cmax (BALB/c, mouse, blood, po, 20 mg/kg, PO 20.0 mg/kg, mean n=3, read-out: Cmax) of 225 ng/mL. It also gave an MRT last [2] of 7.64 h, an MRT inf [2] of 15.4 h and a half-life (BALB/c, mouse, blood, po, 20 mg/kg, PO 20.0 mg/kg, mean n=3, read-out: T1/2 (converted)) of 11.6 h. It also gave an AUC(0-inf) (BALB/c, mouse, blood, po, 20 mg/kg, PO administration of 20 mpk, read-out: AUC∞) of 3030 ng·h/mL, a Cmax (BALB/c, mouse, blood, po, 20 mg/kg, PO administration of 20 mpk, read-out: Cmax) of 224 ng/mL and a half-life (BALB/c, mouse, blood, po, 20 mg/kg, PO administration of 20 mpk, read-out: half-life (converted)) of 11.6 h. For the same compound, the Tmax (BALB/c, mouse, blood, IV 5.0 mg/kg, mean n=3) was 0.083 h, the Tmax (BALB/c, mouse, blood, PO 20.0 mg/kg, individual animals) was 1 h and the concentration in blood (IV 5 mg/kg, 0.083 h, individual animals 101-103, 5 mg/kg) was 2724.650 ng/mI and 2922.650 ng/mI. The concentration in blood (IV 5 mg/kg, 0.25 h, individual animals 101-103, 5 mg/kg) was 1228.390 ng/mI and 1506.240 ng/mI, the concentration in blood (IV 5 mg/kg, 0.50 h, individual animals 101-103, 5 mg/kg) was 741.777 ng/mI and 916.427 ng/mI and the concentration in blood (IV 5 mg/kg, 1.00 h, individual animals 101-103, 5 mg/kg) was 319.272 ng/mI and 350.728 ng/mI. For the same compound, the concentration in blood (IV 5 mg/kg, 4.00 h, individual animals 101-103, 5 mg/kg) was 129.441 ng/mI and 94.754 ng/mI, the concentration in blood (IV 5 mg/kg, 24.00 h, individual animals 101-103, 5 mg/kg) was 45.260 ng/mI and 30.044 ng/mI and the “AUCINF_obs AUC(0-∞)” value [3] was 4161.11 ng·h/mL and 3533.38 ng·h/mL. The “AUClast AUC(0-t)” value [3] was 3542.76 ng·h/mL and 3195.55 ng·h/mL, the C0 [3] was 4048.20 ng/mL and 4063.09 ng/mL and the “Cl_obs Cl” value [3] was 20.0267 mL/min/kg and 23.5847 mL/min/kg. The Cmax [3] was 2724.65 ng/mL and 2922.65 ng/mL, the “HL_Lambda_z T1/2” value [3] was 9.47 h and 7.79 h and the “MRTINF_obs MRT(0-∞)” value [3] was 9.83 h and 6.90 h. The “MRTlast MRT(0-t)” value [3] was 4.97 h and 3.90 h, the “Vss_obs Vss” value [3] was 11.80918 L/kg and 9.76009 L/kg and the “Vz_obs Vz” value [3] was 16.41627 L/kg and 15.912 L/kg. For the same compound, the concentration in blood (PO 20 mg/kg, 0.25 h, individual animals 201-203, 20 mg/kg) was 114.648 ng/mI and 79.841 ng/mI, the concentration in blood (PO 20 mg/kg, 0.50 h, individual animals 201-203, 20 mg/kg) was 164.520 ng/mI and 165.563 ng/mI and the concentration in blood (PO 20 mg/kg, 1.00 h, individual animals 201-203, 20 mg/kg) was 232.437 ng/mI and 230.000 ng/mI. For the same compound, the concentration in blood (PO 20 mg/kg, 3.00 h, individual animals 201-203, 20 mg/kg) was 155.307 ng/mI and 179.295 ng/mI, the concentration in blood (PO 20 mg/kg, 6.00 h, individual animals 201-203, 20 mg/kg) was 123.919 ng/mI and 111.651 ng/mI and the concentration in blood (PO 20 mg/kg, 24.00 h, individual animals 201-203, 20 mg/kg) was 37.325 ng/mI and 50.885 ng/mI. For the same compound, the “AUC(0-t)” value [4] was 2406.25 ng·h/mL and 2448.08 ng·h/mL, the “AUC(0-∞)” value [4] was 2959.50 ng·h/mL and 3385.50 ng·h/mL and the Cmax [4] was 232.44 ng/mL and 230.00 ng/mL. For the same compound, the F [4] was 15.87% and 18.22% and 18.54%, the “MRT(0-t)” value [4] was 7.22 h and 8.04 h and the “MRT(0-∞)” value [4] was 13.12 h and 17.56 h. The T1/2 [4] was 10.27 h and 12.77 h and the F (PO 20.0 mg/kg, mean n=3) was 17.55%.
